Values of other authors, collected in patent US11382865B2, “Pharmaceutical preparation and method for its manufacture” (BAYER ANIMAL HEALTH GMBH, priority 2016, dated 2022).

Tests used:
[1] = tested on: parasitic worms (helminths); settings: veterinary parasiticide

CO/N=C1\C[C@]2(C[C@@H]3C[C@@H](C/C=C(\C)C[C@@H](C)/C=C/C=C4\CO[C@@H]5[C@H](O)C(C)=C[C@@H](C(=O)O3)[C@]45O)O2)O[C@H](/C(C)=C/C(C)C)[C@H]1C [Moxidectin]
Dose at which active [1]: < 25 μg/kg body weight | Solubility in organic solvents (organic solvents): readily soluble | Solubility in water (water): practically insoluble
